Results on 6 molecules are retold here after ChEMBL document CHEMBL3425412, “Additional sesterterpenes and a nortriterpene saponin from the sponge Clathria gombawuiensis” (2015).

By MIC is commonly meant the lowest concentration found to suppress growth. The low end stands for inhibition by little substance, the high end for a need for much substance.

≈ marks a conversion by molar mass, not a printed value.

For the first test, the system named is A549. In words: Cytotoxicity against human A549 cells. Type of test: functional. The settings on record: read-out: LC50 (the source's name).
Regarding `CC1=CC(=O)[C@@H]2[C@@]3(C)CCCC(C)(C)[C@@H]3[C@@H](O)C[C@]2(C)c2c1ccc(C)c2O`, the CC50 came out at 4.7 µM.
Same read-out and setting: next, `C=C1/C=C\[C@@H]2[C@@]3(C)CCCC(C)(C)[C@@H]3[C@H](O)C[C@@]2(C)O[C@@H]2C=C(C)C(=O)C[C@H]12`: 3.9 µM; `CC(=O)[C@H]1CC[C@@]2(C)C3=C(CC[C@]12C)[C@@]1(C)CCC(O[C@@H]2O[C@H](C(=O)O)[C@@H](O)[C@H](OS(=O)(=O)[O-])[C@H]2O)C(C)(C)[C@@H]1CC3.[Na+]` (some centres undefined): 2.1 µM; `COc1c(C)ccc2c1[C@@]1(C)C[C@H](O)[C@H]3C(C)(C)CCC[C@]3(C)[C@H]1C(=O)C=C2C`: more than 100 µM.
On the same count and under the same terms, next, `COc1cccc2c1C(=O)c1c(O)c3c(c(O)c1C2=O)C[C@@](O)(C(=O)CO)C[C@@H]3O[C@H]1C[C@H](N)[C@H](O)[C@H](C)O1` [DOXORUBICIN]: 1.1 µM.

The test system of another test is K562. In words: Cytotoxicity against human K562 cells. Format: functional. The settings on record: read-out: LC50 (the source's name).
Take `CC1=CC(=O)[C@@H]2[C@@]3(C)CCCC(C)(C)[C@@H]3[C@@H](O)C[C@]2(C)c2c1ccc(C)c2O`: the CC50 is 5.4 µM.
Still for that read-out and setting: next, `C=C1/C=C\[C@@H]2[C@@]3(C)CCCC(C)(C)[C@@H]3[C@H](O)C[C@@]2(C)O[C@@H]2C=C(C)C(=O)C[C@H]12`: 4.5 µM.
In the case of `CC(=O)[C@H]1CC[C@@]2(C)C3=C(CC[C@]12C)[C@@]1(C)CCC(O[C@@H]2O[C@H](C(=O)O)[C@@H](O)[C@H](OS(=O)(=O)[O-])[C@H]2O)C(C)(C)[C@@H]1CC3.[Na+]` (some centres undefined), the CC50 stood at 1.8 µM.
Same read-out and setting: the same measure for `COc1c(C)ccc2c1[C@@]1(C)C[C@H](O)[C@H]3C(C)(C)CCC[C@]3(C)[C@H]1C(=O)C=C2C`: more than 100 µM; for `COc1cccc2c1C(=O)c1c(O)c3c(c(O)c1C2=O)C[C@@](O)(C(=O)CO)C[C@@H]3O[C@H]1C[C@H](N)[C@H](O)[C@H](C)O1` [DOXORUBICIN]: 1.5 µM.

In another test the test system is Staphylococcus aureus. Kind of test: Antimicrobial activity against Staphylococcus aureus ATCC 6538p after 24 hrs by twofold dilution method. Type of test: functional.
Conditions: not given
`CC1=CC(=O)[C@@H]2[C@@]3(C)CCCC(C)(C)[C@@H]3[C@@H](O)C[C@]2(C)c2c1ccc(C)c2O` returned a minimal inhibitory concentration (MIC) of more than 100 µg/mL.
On the same count and under the same terms, next, `C=C1/C=C\[C@@H]2[C@@]3(C)CCCC(C)(C)[C@@H]3[C@H](O)C[C@@]2(C)O[C@@H]2C=C(C)C(=O)C[C@H]12`: more than 100 µg/mL; `CC(=O)[C@H]1CC[C@@]2(C)C3=C(CC[C@]12C)[C@@]1(C)CCC(O[C@@H]2O[C@H](C(=O)O)[C@@H](O)[C@H](OS(=O)(=O)[O-])[C@H]2O)C(C)(C)[C@@H]1CC3.[Na+]` (some centres undefined): more than 100 µg/mL.
Still for that read-out and setting: the same measure for `CC1(C)S[C@@H]2[C@H](NC(=O)[C@H](N)c3ccccc3)C(=O)N2[C@H]1C(=O)O` [AMPICILLIN]: 0.4 µg/mL (≈ 1.14 µM).

A further test has as its system Bacillus subtilis. Kind of test: Antimicrobial activity against Bacillus subtilis ATCC 6633 after 24 hrs by twofold dilution method. Type of test: functional. Conditions: ATCC 6633, 24 h.
In turn, `CC(=O)[C@H]1CC[C@@]2(C)C3=C(CC[C@]12C)[C@@]1(C)CCC(O[C@@H]2O[C@H](C(=O)O)[C@@H](O)[C@H](OS(=O)(=O)[O-])[C@H]2O)C(C)(C)[C@@H]1CC3.[Na+]` (some centres undefined) had an MIC of 1.6 µg/mL.
With `CC1(C)S[C@@H]2[C@H](NC(=O)[C@H](N)c3ccccc3)C(=O)N2[C@H]1C(=O)O` [AMPICILLIN], it took 0.4 µg/mL (≈ 1.14 µM) to inhibit growth (MIC).

In a further test the test system is Kocuria rhizophila. Kind of test: Antimicrobial activity against Kocuria rhizophila NBRC 12708 after 24 hrs by twofold dilution method. Conditions: NBRC 12708, 24 h. Format: functional.
Turning to `CC(=O)[C@H]1CC[C@@]2(C)C3=C(CC[C@]12C)[C@@]1(C)CCC(O[C@@H]2O[C@H](C(=O)O)[C@@H](O)[C@H](OS(=O)(=O)[O-])[C@H]2O)C(C)(C)[C@@H]1CC3.[Na+]` (some centres undefined), the minimal inhibitory concentration (MIC) was more than 100 µg/mL.
Still for that read-out and setting: next, `CC1(C)S[C@@H]2[C@H](NC(=O)[C@H](N)c3ccccc3)C(=O)N2[C@H]1C(=O)O` [AMPICILLIN]: 0.4 µg/mL (≈ 1.14 µM).

The subject of another test is Salmonella enterica. Kind of test: Antimicrobial activity against Salmonella enterica ATCC 14028 after 24 hrs by twofold dilution method. Format: functional. The settings on record: ATCC 14028, 24 h.
As to `CC(=O)[C@H]1CC[C@@]2(C)C3=C(CC[C@]12C)[C@@]1(C)CCC(O[C@@H]2O[C@H](C(=O)O)[C@@H](O)[C@H](OS(=O)(=O)[O-])[C@H]2O)C(C)(C)[C@@H]1CC3.[Na+]` (some centres undefined), the MIC was more than 100 µg/mL.
The same measure, in the same setting: next, `CC1(C)S[C@@H]2[C@H](NC(=O)[C@H](N)c3ccccc3)C(=O)N2[C@H]1C(=O)O` [AMPICILLIN]: 0.8 µg/mL (≈ 2.29 µM).

A further test has as its system Proteus hauseri. Kind of test: Antimicrobial activity against Proteus hauseri NBRC 3851 after 24 hrs by twofold dilution method. Format: functional. The settings on record: NBRC 3851, 24 h.
On to `CC1=CC(=O)[C@@H]2[C@@]3(C)CCCC(C)(C)[C@@H]3[C@@H](O)C[C@]2(C)c2c1ccc(C)c2O`, for which the minimal inhibitory concentration (MIC) is more than 100 µg/mL.
Still for that read-out and setting: the same measure for `C=C1/C=C\[C@@H]2[C@@]3(C)CCCC(C)(C)[C@@H]3[C@H](O)C[C@@]2(C)O[C@@H]2C=C(C)C(=O)C[C@H]12`: more than 100 µg/mL; for `CC(=O)[C@H]1CC[C@@]2(C)C3=C(CC[C@]12C)[C@@]1(C)CCC(O[C@@H]2O[C@H](C(=O)O)[C@@H](O)[C@H](OS(=O)(=O)[O-])[C@H]2O)C(C)(C)[C@@H]1CC3.[Na+]` (some centres undefined): 3.1 µg/mL.
Still for that read-out and setting: next, `CC1(C)S[C@@H]2[C@H](NC(=O)[C@H](N)c3ccccc3)C(=O)N2[C@H]1C(=O)O` [AMPICILLIN]: 0.4 µg/mL (≈ 1.14 µM).
